From ChEMBL document CHEMBL5223126, “Development of selective FGFR1 degraders using a Rapid synthesis of proteolysis targeting Chimera (Rapid-TAC) platform” (Bioorg Med Chem Lett, 2022)
One block for each molecule: values may come before it. Calls of active or inactive are those of the source. No cut-off for these calls is given here.

Assays:
[1] = molecular target: von Hippel-Lindau disease tumor suppressor/Fibroblast growth factor receptor 1 (Homo sapiens) (UniProt P11362+P40337); experiment: PROTAC activity at FGFR1/VHL in human MCF7 cells assessed as FGFR1 degradation at 100 nM incubated for 6 hrs by Western blot analysis; format: cell-based
[2] = test system: NCI-H1581; experiment: Antiproliferative activity against human NCI-H1581 cells assessed as inhibition of cell growth incubated for 120 hrs by MTT assay; format: functional, cell-based; details: NCI-H1581, 120 h
[3] = test system: DMS-114; experiment: Antiproliferative activity against human DMS-114 cells assessed as inhibition of cell growth incubated for 120 hrs by MTT assay; format: functional, cell-based; details: DMS-114, 120 h
[4] = molecular target: T1, Protein cereblon/Fibroblast growth factor receptor 1 (Homo sapiens) (UniProt P11362+Q96SW2); experiment: PROTAC activity at FGFR1/CRBN in human MCF7 cells assessed as FGFR1 degradation at 100 nM incubated for 6 hrs by Western blot analysis; format: cell-based
[5] = molecular target: Protein cereblon/Fibroblast growth factor receptor 2 (Homo sapiens) (UniProt P21802+Q96SW2); experiment: PROTAC activity at FGFR2/CRBN in human MCF7 cells assessed as FGFR2 degradation at 0.1 to 10 uM incubated for 6 hrs by Western blot analysis; format: cell-based; details: dose 0.1-10 µM
[6] = molecular target: Protein cereblon/Fibroblast growth factor receptor 4 (Homo sapiens) (UniProt P22455+Q96SW2); experiment: PROTAC activity at FGFR4/CRBN in human MCF7 cells assessed as FGFR4 degradation at 0.1 to 10 uM incubated for 6 hrs by Western blot analysis; format: cell-based; details: dose 0.1-10 µM
[7] = molecular target: T1, Protein cereblon/Fibroblast growth factor receptor 1 (Homo sapiens); experiment: PROTAC activity at FGFR1/CRBN in human MCF7 cells assessed as FGFR1 degradation at 0.1 to 10 uM incubated for 6 hrs by Western blot analysis; format: cell-based; details: dose 0.1-10 µM
[8] = molecular target: Protein cereblon/Fibroblast growth factor receptor 3 (Homo sapiens) (UniProt P22607+Q96SW2); experiment: PROTAC activity at FGFR3/CRBN in human MCF7 cells assessed as FGFR3 degradation at 0.1 to 10 uM incubated for 6 hrs by Western blot analysis; format: cell-based; details: dose 0.1-10 µM
[9] = molecular target: T1, Protein cereblon/Fibroblast growth factor receptor 1 (Homo sapiens); experiment: PROTAC activity at FGFR1/CRBN in human DMS-114 cells assessed as FGFR1 degradation at 0.1 to 10 uM incubated for 6 hrs by Western blot analysis; format: cell-based; details: dose 0.1-10 µM
[10] = molecular target: T1, Protein cereblon/Fibroblast growth factor receptor 1 (Homo sapiens); experiment: PROTAC activity at FGFR1/CRBN in human NCI-H1581 cells assessed as FGFR1 degradation at 0.1 to 10 uM incubated for 6 hrs by Western blot analysis; format: cell-based; details: dose 0.1-10 µM

von Hippel-Lindau disease tumor suppressor/Fibroblast growth factor receptor 1 (Homo sapiens), sequence (P11362 22-822 limits assumed): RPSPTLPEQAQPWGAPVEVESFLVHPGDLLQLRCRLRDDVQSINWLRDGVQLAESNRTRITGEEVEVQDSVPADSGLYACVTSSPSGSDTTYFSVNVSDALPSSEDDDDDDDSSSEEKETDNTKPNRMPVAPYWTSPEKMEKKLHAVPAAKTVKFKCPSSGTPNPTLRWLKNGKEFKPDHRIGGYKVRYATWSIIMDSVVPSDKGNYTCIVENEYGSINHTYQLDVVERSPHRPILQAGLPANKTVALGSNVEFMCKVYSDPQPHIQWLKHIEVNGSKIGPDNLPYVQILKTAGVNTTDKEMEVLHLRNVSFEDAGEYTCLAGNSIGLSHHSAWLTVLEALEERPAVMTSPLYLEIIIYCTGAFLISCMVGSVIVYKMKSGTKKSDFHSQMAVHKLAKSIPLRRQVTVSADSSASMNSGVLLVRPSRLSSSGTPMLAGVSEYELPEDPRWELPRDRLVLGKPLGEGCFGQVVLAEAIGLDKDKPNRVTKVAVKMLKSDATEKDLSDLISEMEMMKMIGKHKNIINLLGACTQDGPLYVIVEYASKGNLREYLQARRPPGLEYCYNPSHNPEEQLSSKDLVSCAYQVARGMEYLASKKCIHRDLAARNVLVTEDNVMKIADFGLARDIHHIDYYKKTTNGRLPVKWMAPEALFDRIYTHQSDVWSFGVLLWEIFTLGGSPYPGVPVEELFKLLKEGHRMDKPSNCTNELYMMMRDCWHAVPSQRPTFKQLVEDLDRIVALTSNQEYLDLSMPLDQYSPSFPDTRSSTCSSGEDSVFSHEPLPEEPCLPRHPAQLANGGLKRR
von Hippel-Lindau disease tumor suppressor/Fibroblast growth factor receptor 1 (Homo sapiens), sequence (P40337 whole entry partner): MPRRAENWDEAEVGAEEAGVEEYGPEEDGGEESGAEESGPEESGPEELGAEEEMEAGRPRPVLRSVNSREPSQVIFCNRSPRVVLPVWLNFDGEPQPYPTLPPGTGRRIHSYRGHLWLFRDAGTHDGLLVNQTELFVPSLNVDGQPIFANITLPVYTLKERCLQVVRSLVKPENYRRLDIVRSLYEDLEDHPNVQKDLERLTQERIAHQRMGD
T1 sequence (P11362 whole entry, looked up): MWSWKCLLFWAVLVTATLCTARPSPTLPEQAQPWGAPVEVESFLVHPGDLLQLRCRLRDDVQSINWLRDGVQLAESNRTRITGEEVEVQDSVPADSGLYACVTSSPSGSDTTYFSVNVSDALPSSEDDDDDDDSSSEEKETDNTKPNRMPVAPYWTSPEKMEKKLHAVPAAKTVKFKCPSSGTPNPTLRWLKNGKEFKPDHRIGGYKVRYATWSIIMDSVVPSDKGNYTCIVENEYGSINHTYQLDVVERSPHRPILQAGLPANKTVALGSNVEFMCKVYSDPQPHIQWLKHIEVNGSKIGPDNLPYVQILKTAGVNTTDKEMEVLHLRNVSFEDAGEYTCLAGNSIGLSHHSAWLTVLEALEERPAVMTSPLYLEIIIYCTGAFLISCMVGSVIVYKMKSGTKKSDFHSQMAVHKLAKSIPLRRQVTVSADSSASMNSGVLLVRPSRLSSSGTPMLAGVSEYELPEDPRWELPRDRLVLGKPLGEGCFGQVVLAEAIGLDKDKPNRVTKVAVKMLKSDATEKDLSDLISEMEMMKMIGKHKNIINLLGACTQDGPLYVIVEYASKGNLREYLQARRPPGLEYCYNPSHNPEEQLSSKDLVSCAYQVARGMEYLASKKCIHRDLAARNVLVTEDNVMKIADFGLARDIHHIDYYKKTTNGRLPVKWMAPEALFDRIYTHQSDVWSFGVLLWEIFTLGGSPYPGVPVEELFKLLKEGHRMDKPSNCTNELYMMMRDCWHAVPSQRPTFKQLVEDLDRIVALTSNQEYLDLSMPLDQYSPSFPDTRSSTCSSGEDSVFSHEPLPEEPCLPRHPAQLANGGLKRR
T1 sequence (Q96SW2 whole entry, looked up): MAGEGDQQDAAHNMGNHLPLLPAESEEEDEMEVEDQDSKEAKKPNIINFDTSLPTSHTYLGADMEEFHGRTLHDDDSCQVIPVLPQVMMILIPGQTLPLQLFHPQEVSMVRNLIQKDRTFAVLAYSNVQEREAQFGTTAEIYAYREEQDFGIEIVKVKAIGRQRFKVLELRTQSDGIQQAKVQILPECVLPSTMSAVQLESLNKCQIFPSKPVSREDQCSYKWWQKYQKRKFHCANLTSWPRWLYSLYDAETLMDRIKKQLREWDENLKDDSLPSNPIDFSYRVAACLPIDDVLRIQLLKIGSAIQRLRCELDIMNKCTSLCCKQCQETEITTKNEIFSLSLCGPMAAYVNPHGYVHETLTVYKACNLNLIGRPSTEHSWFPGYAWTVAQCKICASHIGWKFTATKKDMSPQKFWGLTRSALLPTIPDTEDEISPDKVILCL
Protein cereblon/Fibroblast growth factor receptor 2 (Homo sapiens), sequence (P21802 22-821 limits assumed): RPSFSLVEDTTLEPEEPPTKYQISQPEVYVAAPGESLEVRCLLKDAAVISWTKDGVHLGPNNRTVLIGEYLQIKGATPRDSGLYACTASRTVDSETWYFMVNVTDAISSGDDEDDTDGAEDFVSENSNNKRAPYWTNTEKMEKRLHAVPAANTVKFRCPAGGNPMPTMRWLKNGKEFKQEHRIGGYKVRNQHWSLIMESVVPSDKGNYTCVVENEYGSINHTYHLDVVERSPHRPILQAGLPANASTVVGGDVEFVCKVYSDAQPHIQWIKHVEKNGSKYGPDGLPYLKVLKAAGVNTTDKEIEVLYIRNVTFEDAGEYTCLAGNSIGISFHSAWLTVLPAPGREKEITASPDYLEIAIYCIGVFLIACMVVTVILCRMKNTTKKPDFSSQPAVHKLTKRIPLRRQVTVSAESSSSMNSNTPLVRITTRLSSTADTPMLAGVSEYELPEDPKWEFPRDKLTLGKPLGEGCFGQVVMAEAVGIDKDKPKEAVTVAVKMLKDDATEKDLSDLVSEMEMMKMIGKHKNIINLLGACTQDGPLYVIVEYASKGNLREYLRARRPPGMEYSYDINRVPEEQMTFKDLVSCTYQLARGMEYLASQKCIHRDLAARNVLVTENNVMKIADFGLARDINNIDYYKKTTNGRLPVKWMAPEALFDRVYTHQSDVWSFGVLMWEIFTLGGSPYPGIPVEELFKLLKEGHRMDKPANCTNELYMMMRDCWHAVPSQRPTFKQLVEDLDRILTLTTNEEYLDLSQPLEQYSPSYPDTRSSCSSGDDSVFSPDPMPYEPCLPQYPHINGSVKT
Protein cereblon/Fibroblast growth factor receptor 2 (Homo sapiens), sequence (Q96SW2 whole entry partner): as the sequence (Q96SW2 whole entry, looked up) above
Protein cereblon/Fibroblast growth factor receptor 3 (Homo sapiens), sequence (P22607 whole entry, looked up): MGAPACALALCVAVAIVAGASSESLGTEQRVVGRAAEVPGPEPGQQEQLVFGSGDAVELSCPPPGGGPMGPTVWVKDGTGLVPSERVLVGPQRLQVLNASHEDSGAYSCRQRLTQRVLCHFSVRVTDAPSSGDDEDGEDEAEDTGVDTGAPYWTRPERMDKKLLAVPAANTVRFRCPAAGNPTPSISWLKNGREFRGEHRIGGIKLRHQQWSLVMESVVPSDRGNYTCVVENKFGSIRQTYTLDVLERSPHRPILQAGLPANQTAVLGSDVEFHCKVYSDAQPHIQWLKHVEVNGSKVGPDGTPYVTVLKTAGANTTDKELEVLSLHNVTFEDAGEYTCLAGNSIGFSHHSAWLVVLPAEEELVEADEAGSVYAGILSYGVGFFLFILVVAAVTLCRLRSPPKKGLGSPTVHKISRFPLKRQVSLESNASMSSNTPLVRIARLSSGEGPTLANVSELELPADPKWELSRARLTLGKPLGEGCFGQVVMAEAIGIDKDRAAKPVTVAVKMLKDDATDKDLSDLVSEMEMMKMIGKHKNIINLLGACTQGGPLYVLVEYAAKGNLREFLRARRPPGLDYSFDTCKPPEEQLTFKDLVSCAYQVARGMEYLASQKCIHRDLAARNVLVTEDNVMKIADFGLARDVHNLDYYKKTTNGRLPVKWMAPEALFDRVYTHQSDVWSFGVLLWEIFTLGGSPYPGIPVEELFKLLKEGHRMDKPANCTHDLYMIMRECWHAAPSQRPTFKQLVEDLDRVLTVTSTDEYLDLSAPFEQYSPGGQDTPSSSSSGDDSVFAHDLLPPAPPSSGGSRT
Protein cereblon/Fibroblast growth factor receptor 3 (Homo sapiens), sequence (Q96SW2 whole entry, looked up): as the sequence (Q96SW2 whole entry, looked up) above
Protein cereblon/Fibroblast growth factor receptor 4 (Homo sapiens), sequence (P22455 whole entry, looked up): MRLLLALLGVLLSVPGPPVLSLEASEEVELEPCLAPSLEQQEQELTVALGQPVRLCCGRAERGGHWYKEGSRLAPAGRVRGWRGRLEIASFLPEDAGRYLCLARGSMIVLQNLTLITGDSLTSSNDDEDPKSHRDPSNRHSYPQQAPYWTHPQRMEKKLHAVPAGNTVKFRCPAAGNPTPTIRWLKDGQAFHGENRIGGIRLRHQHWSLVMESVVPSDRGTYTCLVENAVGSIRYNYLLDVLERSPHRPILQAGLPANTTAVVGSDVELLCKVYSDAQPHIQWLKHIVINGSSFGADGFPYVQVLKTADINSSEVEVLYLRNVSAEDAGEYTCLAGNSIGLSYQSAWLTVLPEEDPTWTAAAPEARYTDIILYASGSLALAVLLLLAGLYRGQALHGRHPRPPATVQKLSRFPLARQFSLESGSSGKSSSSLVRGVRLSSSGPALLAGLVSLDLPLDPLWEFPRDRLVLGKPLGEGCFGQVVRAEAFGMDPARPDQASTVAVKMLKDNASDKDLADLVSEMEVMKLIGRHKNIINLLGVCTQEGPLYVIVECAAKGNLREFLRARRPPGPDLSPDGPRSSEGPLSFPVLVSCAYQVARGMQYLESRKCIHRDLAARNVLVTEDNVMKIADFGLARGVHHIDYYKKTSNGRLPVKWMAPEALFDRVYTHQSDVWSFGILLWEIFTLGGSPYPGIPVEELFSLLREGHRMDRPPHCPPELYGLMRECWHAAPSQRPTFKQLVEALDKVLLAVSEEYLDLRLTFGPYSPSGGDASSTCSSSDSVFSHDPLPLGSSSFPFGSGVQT
Protein cereblon/Fibroblast growth factor receptor 4 (Homo sapiens), sequence (Q96SW2 whole entry, looked up): as the sequence (Q96SW2 whole entry, looked up) above

SMILES: COc1cc(CCc2cc(NC(=O)c3ccc(N4C[C@@H](C)N(CC(=O)N/N=C/c5ccc(OCCOCCOCCOCCOCC(=O)N[C@H](C(=O)N6C[C@H](O)C[C@H]6C(=O)N[C@@H](C)c6ccc(-c7scnc7C)cc6)C(C)(C)C)cc5)[C@@H](C)C4)cc3)n[nH]2)cc(OC)c1
Activity [1]: Active

SMILES: COc1cc(CCc2cc(NC(=O)c3ccc(N4C[C@@H](C)N(CC(=O)NCCc5ccc(OCC(=O)N[C@H](C(=O)N6C[C@H](O)C[C@H]6C(=O)N[C@@H](C)c6ccc(-c7scnc7C)cc6)C(C)(C)C)cc5)[C@@H](C)C4)cc3)n[nH]2)cc(OC)c1
IC50 [2]: 160 nM | IC50 [3]: 139 nM

SMILES: COc1cc(CCc2cc(NC(=O)c3ccc(N4C[C@@H](C)N(CC(=O)N/N=C\c5ccc(OCC(=O)N[C@H](C(=O)N6C[C@H](O)C[C@H]6C(=O)N[C@@H](C)c6ccc(-c7scnc7C)cc6)C(C)(C)C)cc5)[C@@H](C)C4)cc3)n[nH]2)cc(OC)c1
Activity [1]: Active

SMILES: COc1cc(CCc2cc(NC(=O)c3ccc(N4C[C@@H](C)N(CC(=O)N/N=C/c5ccc(OCCOCCOCCOCC(=O)N[C@H](C(=O)N6C[C@H](O)C[C@H]6C(=O)N[C@@H](C)c6ccc(-c7scnc7C)cc6)C(C)(C)C)cc5)[C@@H](C)C4)cc3)n[nH]2)cc(OC)c1
Activity [1]: Active

SMILES: COc1cc(CCc2cc(NC(=O)c3ccc(N4C[C@@H](C)N[C@@H](C)C4)cc3)n[nH]2)cc(OC)c1 [FEXAGRATINIB]
IC50 [2]: 4 nM | IC50 [3]: 14 nM

SMILES: COc1cc(CCc2cc(NC(=O)c3ccc(N4C[C@@H](C)N(CC(=O)N/N=C\c5ccc(OCCCCC(=O)N[C@H](C(=O)N6C[C@H](O)C[C@H]6C(=O)N[C@@H](C)c6ccc(-c7scnc7C)cc6)C(C)(C)C)cc5)[C@@H](C)C4)cc3)n[nH]2)cc(OC)c1
Activity [1]: Active

Further lines, results first:

Activity [4]: Active
SMILES: COc1cc(CCc2cc(NC(=O)c3ccc(N4C[C@@H](C)N(CC(=O)N/N=C/c5ccc(OCCCCC(=O)NCC#Cc6cccc7c6CN(C6CCC(=O)NC6=O)C7=O)cc5)[C@@H](C)C4)cc3)n[nH]2)cc(OC)c1 (stereo not given in full)

Activity [5]: inactive | Activity [6]: inactive | Activity [7]: Active | Activity [8]: inactive
SMILES: COc1cc(CCc2cc(NC(=O)c3ccc(N4C[C@@H](C)N(CC(=O)N/N=C/c5ccc(OCCOCCOCCOCC(=O)NCC#Cc6cccc7c6CN(C6CCC(=O)NC6=O)C7=O)cc5)[C@@H](C)C4)cc3)n[nH]2)cc(OC)c1 (stereo not given in full)

Activity [5]: inactive | Activity [6]: inactive | Activity [7]: Active | Activity [8]: inactive
SMILES: COc1cc(CCc2cc(NC(=O)c3ccc(N4C[C@@H](C)N(CC(=O)N/N=C/c5ccc(OCCOCCOCCOCCOCCOCC(=O)NCC#Cc6cccc7c6CN(C6CCC(=O)NC6=O)C7=O)cc5)[C@@H](C)C4)cc3)n[nH]2)cc(OC)c1 (stereo not given in full)

Activity [9]: inactive | Activity [7]: Active | Activity [10]: inactive
SMILES: COc1cc(CCc2cc(NC(=O)c3ccc(N4C[C@@H](C)N(CC(=O)NCCc5ccc(OCCOCCOCC(=O)NC#Cc6cccc7c6CN(C6CCC(=O)NC6=O)C7=O)cc5)[C@@H](C)C4)cc3)n[nH]2)cc(OC)c1 (stereo not given in full)

Activity [4]: Active
SMILES: COc1cc(CCc2cc(NC(=O)c3ccc(N4C[C@@H](C)N(CC(=O)N/N=C/c5ccc(OCCOCCOCC(=O)NCC#Cc6cccc7c6CN(C6CCC(=O)NC6=O)C7=O)cc5)[C@@H](C)C4)cc3)n[nH]2)cc(OC)c1 (stereo not given in full)

Activity [5]: inactive | Activity [6]: inactive | Activity [7]: Active | Activity [8]: inactive
SMILES: COc1cc(CCc2cc(NC(=O)c3ccc(N4C[C@@H](C)N(CC(=O)N/N=C/c5ccc(OCCOCC(=O)NCC#Cc6cccc7c6CN(C6CCC(=O)NC6=O)C7=O)cc5)[C@@H](C)C4)cc3)n[nH]2)cc(OC)c1 (stereo not given in full)
